Measured values as given in paper PMC6707142, “Orthogonal monoterpenoid biosynthesis in yeast constructed on an isomeric substrate” (Nature Communications, 2019).

Tests used:
[1] = tested on: T1, SeCamS; assay: GC-MS of hexane-extracted monoterpene products; assay type: biochemical, Solanum elaeagnifolium; conditions: 20 mM MOPS pH 7.0, 20 mM MgCl2, 0.02 mM MnCl2, 30 °C, 1 h; read-out: KM^app
T1 construct: 6xHis-tagged, E. coli BL21(DE3), Ni-NTA purified
From the text: GC-MS of hexane-extracted monoterpene products on SeCamS

[2] = target: T2, PtPinS (Pinus taeda, UniProt Q84KL3); assay: GC-MS product analysis in vitro; assay type: biochemical; conditions: 20 mM MOPS pH 7.0, 20 mM MgCl2, 0.02 mM MnCl2, 30 °C, 1 h
T2 construct: gene PT30; lacking the transit peptide, 6xHis-tagged, E. coli BL21(DE3), Ni-NTA purified
T2 sequence (Q84KL3 49-628): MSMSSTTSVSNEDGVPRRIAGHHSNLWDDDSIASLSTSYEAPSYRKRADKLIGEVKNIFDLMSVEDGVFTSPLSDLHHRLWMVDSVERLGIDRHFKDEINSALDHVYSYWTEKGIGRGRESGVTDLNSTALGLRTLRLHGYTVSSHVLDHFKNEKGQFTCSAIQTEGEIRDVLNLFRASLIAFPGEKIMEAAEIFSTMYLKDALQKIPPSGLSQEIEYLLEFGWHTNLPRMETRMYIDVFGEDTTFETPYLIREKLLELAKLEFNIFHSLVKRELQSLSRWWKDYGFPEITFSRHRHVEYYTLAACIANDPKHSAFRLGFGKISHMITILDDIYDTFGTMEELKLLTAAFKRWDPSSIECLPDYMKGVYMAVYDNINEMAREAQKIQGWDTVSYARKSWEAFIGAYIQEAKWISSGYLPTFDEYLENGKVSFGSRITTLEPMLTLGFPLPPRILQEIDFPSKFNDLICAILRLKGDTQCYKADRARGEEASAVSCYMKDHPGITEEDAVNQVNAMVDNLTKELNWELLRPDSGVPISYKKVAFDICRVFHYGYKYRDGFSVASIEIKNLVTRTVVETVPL

[3] = target: T3, SpSabS (Salvia pomifera, UniProt A6XH06); assay: GC-MS product analysis in vitro; assay type: biochemical; conditions: 20 mM MOPS pH 7.0, 20 mM MgCl2, 0.02 mM MnCl2, 30 °C, 1 h
T3 construct: gene SabS1; 6xHis-tagged, E. coli BL21(DE3), Ni-NTA purified
T3 sequence (A6XH06 29-581): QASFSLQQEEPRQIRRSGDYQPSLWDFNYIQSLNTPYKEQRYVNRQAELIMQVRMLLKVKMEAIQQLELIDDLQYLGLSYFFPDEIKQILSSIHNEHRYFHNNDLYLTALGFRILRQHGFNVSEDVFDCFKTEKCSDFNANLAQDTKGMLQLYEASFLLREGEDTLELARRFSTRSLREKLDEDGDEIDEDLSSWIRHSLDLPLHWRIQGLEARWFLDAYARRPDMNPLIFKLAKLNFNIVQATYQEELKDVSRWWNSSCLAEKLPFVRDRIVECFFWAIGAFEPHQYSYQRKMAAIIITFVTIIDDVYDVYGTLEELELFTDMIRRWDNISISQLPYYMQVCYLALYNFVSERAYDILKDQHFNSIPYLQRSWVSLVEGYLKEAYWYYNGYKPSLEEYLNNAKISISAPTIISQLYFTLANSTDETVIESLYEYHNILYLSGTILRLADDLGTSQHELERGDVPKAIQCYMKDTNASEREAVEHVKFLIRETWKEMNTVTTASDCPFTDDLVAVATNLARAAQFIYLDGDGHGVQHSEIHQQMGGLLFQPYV

Row | SMILES | Km [1] | GC-MS product analysis in vitro [2] | GC-MS product analysis in vitro [3]
1 | CC(C)=CCC/C(C)=C/COP(=O)(O)OP(=O)(O)O [GPP] | 18.6 ± 2.77 µM | – | –
2 | CC(C)=CCC/C(C)=C\COP(=O)(O)OP(=O)(O)O [NPP] | 107 ± 12.5 µM | able to utilize NPP in in vitro assays with bacterially expressed enzymes | able to utilize NPP in in vitro assays with bacterially expressed enzymes
